Measured values: patent US12037324B2, “Biarylmethyl heterocycles” (Université de Montréal, priority 2016, dated 2024)

Key:
Format in all cases: cell-based
[1] = biological target: T1, hAT1R (Homo sapiens, UniProt P30556); test: BRET β-arrestin2 biosensor assay, higher receptor expression (hAT1R 5 ng/well), HEK293 cells; settings: for EC50: High AT1R Expression
T1 sequence (P30556 1-359): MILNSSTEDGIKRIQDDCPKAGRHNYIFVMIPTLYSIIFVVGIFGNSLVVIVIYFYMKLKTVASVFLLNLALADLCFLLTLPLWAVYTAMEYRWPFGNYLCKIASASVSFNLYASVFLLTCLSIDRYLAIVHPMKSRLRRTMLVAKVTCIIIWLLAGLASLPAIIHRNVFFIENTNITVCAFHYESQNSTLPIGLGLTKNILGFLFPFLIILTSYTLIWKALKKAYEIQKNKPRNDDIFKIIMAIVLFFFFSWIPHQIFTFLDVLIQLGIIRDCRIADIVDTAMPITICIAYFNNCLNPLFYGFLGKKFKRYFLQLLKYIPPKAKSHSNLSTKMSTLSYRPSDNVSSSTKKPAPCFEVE

[2] = biological target: T2, AGTR1 (Homo sapiens, UniProt P30556); test: DiscoveRx β-arrestin2 recruitment assay (enzyme complementation, Pathunter CHO-K1 AGTR1 β-arrestin cell line); settings: DiscoveRx β-arrestin2 recruitment; for DiscoveRx β-arrestin2 Ymax (%): maximal response
T2 construct: host or cells: Pathunter CHO-K1 AGTR1 β-arrestin cell line (CHO-K1)
T2 sequence (P30556 1-359): T1 sequence (P30556 1-359)
Procedure: In one aspect of the invention, signaling bias of compounds was assessed by comparing the relative activity of compounds to activate both the β-arrestin and Gq signaling pathways. In order to confirm signaling bias, compounds were studied in two different assay formats. DiscoveRx β-arrestin2 Recruitment and IP1 Assays β-arrestin2 recruitment to activated receptors can be assessed using an enzyme complementation method (Zhao, Jones et al. 2008). […] Cells (5000/well) were plated into 1536 well plates (Cellocoat plates, Greiner Bio One, Monroe, NC) 14-16 hours before each experiment in 20 μl DMEM/F12 medium (Thermo-Fisher Scientific, Carlsbad, CA) containing heat-inactivated 1% fetal bovine serum. Subsequently, the compounds of interest were added at varying concentrations to the wells in a volume of 200 nl and the cells incubated for 90 min at 37° C. The detection reagent (10 μl) was added to each well and the plates incubated at room temperature for 1 hour before measurement of chemiluminescence using an EnVision Multilabel Reader (Perkin-Elmer, Waltham, MA). The data are processed using Toolset for Runmaster QCMulti. Concentration-response curves are fitted and EC50s (agonist mode) and IC50s (antagonist mode) estimated using a 4-parameter logistic equation. Compound activities are reported as a relative percentage to the maximal effect of All in the assays.

[3] = biological target: T2, AGTR1; test: DiscoveRx IP1 accumulation assay (HTRF), agonist mode, Pathunter CHO-K1 AGTR1 β-arrestin cell line; settings: for EC50: read-out: IP-1 EC50
Procedure: In one aspect of the invention, signaling bias of compounds was assessed by comparing the relative activity of compounds to activate both the β-arrestin and Gq signaling pathways. In order to confirm signaling bias, compounds were studied in two different assay formats.
DiscoveRx β-arrestin2 Recruitment and IP1 Assays
Gq activation can be assessed by measuring the accumulation of inositol phosphates (e.g. IP3, IP1) that are liberated following activation of phospholipase C by Gq (Thomsen, Frazer et al. 2005). In the current invention we have utilized the DiscoveRx Pathunter CHO-K1 AGTR1 β-arrestin cell line to also measure IP1 accumulation in response to compounds. IP1 accumulation was measured in both agonist and antagonist modes. In agonist mode, cells are plated as above 14-16 hours before the experiment. The medium is then removed and compounds at varying concentrations added in a final volume of 20 μl. The cells are incubated at 37° C. for 90 min. IP1 accumulation detected using a commercial HTRF assay according to manufacturer's instructions (Cisbio, Bedford, MA). Specifically, 4 μl of D2-conjugate solution (diluted 1:20 in Cisbio HTRF assay buffer) is added to each well, followed by the addition of 4 μl of anti-IP1 cryptate diluted 1:20 in HTRF assay buffer and the plates incubated for 20 min at room temperature. 14 μl from each well is measured using an Envision multi-label reader and data processed using Toolset for Runmaster QCMulti. Concentration-response curves are fitted and EC50s (agonist mode) and IC50s (antagonist mode) estimated using a 4-parameter logistic equation. Compound activities are reported as a relative percentage to the maximal effect of All in the assays.

Structure (SMILES): CCc1nc2c(C)cc(C)nc2n1Cc1ccc(-c2cc(-c3ccc(OC(F)(F)F)cc3)ccc2-c2nn[nH]n2)cc1 [Example 6]
- BRET β-Arrestin2 High AT1R Expression Ymax (%) [1]: 73.5%
- EC50 [1]: 51 nM
- EC50 [2]: 14.1 nM
- DiscoveRx β-arrestin2 Ymax (%) [2]: 27.0%
- IP-1 Ymax (%) [3]: 4.9%
- EC50 [3]: 14.6 nM

Structure (SMILES): CCc1nc2c(C)cc(C)nc2n1Cc1ccc(-c2cc(-c3ccc(C(F)(F)F)cc3)ccc2-c2nn[nH]n2)cc1 [Example 7]
- BRET β-Arrestin2 High AT1R Expression Ymax (%) [1]: 60.0%
- EC50 [1]: 37.4 nM
- EC50 [2]: 14.4 nM
- DiscoveRx β-arrestin2 Ymax (%) [2]: 21.6%
- IP-1 Ymax (%) [3]: 9.2%
- EC50 [3]: 83.9 nM

Structure (SMILES): CCc1nc2c(C)cc(C)nc2n1Cc1ccc(-c2cc(-c3cccs3)ccc2-c2nn[nH]n2)cc1 [Example 12]
- BRET β-Arrestin2 High AT1R Expression Ymax (%) [1]: 83.6%
- EC50 [1]: 9 nM
- EC50 [2]: 6.3 nM
- DiscoveRx β-arrestin2 Ymax (%) [2]: 21.4%
- EC50 [3]: > 1000 nM

Structure (SMILES): CCc1nc2c(C)cc(C)nc2n1Cc1ccc(-c2cc(-c3ccc4ncccc4c3)ccc2-c2nn[nH]n2)cc1 [Example 13]
- BRET β-Arrestin2 High AT1R Expression Ymax (%) [1]: 53.8%
- EC50 [1]: 11.5 nM
- EC50 [2]: 12.9 nM
- DiscoveRx β-arrestin2 Ymax (%) [2]: 24.8%
- EC50 [3]: > 1000 nM

Structure (SMILES): CCc1nc2c(C)cc(C)nc2n1Cc1ccc(-c2cc(-c3cccc4cnccc34)ccc2-c2nn[nH]n2)cc1 [Example 16]
- BRET β-Arrestin2 High AT1R Expression Ymax (%) [1]: 69.9%
- EC50 [1]: 24.7 nM
- EC50 [2]: 59.8 nM
- DiscoveRx β-arrestin2 Ymax (%) [2]: 17.1%
- IP-1 Ymax (%) [3]: 3.6%
- EC50 [3]: 55.3 nM

Structure (SMILES): CCc1nc2c(C)cc(C)nc2n1Cc1ccc(-c2cc(-c3cnn(C)c3)ccc2-c2nn[nH]n2)cc1 [Example 21]
- BRET β-Arrestin2 High AT1R Expression Ymax (%) [1]: 64.0%
- EC50 [1]: 51.4 nM
- EC50 [2]: 22.1 nM
- DiscoveRx β-arrestin2 Ymax (%) [2]: 21.1%
- IP-1 Ymax (%) [3]: 6.9%
- EC50 [3]: 77.3 nM

Structure (SMILES): CCc1nc2c(C)cc(C)nc2n1Cc1ccc(-c2cc(-c3cccn3C)ccc2-c2nn[nH]n2)cc1 [Example 22]
- BRET β-Arrestin2 High AT1R Expression Ymax (%) [1]: 57.1%
- EC50 [1]: 33.7 nM
- EC50 [2]: 10.3 nM
- DiscoveRx β-arrestin2 Ymax (%) [2]: 14.8%
- IP-1 Ymax (%) [3]: 2.4%
- EC50 [3]: 34.4 nM

Structure (SMILES): CCc1nc2c(C)cc(C)nc2n1Cc1ccc(-c2cc(-c3cccc(C(=O)N(C)C)c3)ccc2-c2nn[nH]n2)cc1 [Example 23]
- BRET β-Arrestin2 High AT1R Expression Ymax (%) [1]: 66.3%
- EC50 [1]: 170 nM
- EC50 [2]: 54.1 nM
- DiscoveRx β-arrestin2 Ymax (%) [2]: 26.8%
- IP-1 Ymax (%) [3]: 7.3%
- EC50 [3]: 211 nM

Structure (SMILES): CCc1nc2c(C)cc(C)nc2n1Cc1ccc(-c2cc(N3C(=O)c4ccccc4C3=O)ccc2-c2nn[nH]n2)cc1 [Example 27, 2-(4′-((2-ethyl-5,7-dimethyl-3H-imidazo[4,5-b]pyridin-3-yl)methyl)-6-(2H-tetrazol-5-yl)-[1,1′-biphenyl]-3-yl)isoindoline-1,3-dione]
- BRET β-Arrestin2 High AT1R Expression Ymax (%) [1]: 20.1%
- EC50 [1]: 89.5 nM
- EC50 [2]: 206 nM
- DiscoveRx β-arrestin2 Ymax (%) [2]: 10.6%
- EC50 [3]: > 100000 nM

Structure (SMILES): CCCCC(=O)N(Cc1ccc(-c2cc(-c3ccccc3)ccc2-c2nn[nH]n2)cc1)[C@H](C(=O)O)C(C)C [Example 34, (S)-2-(N-((6′-(2H-Tetrazol-5-yl)-[1,1′:3′,1″-terphenyl]-4-yl)methyl)pentanamido)-3-methylbutanoic acid]
- BRET β-Arrestin2 High AT1R Expression Ymax (%) [1]: 68.4%
- EC50 [1]: 50.6 nM
- EC50 [2]: 40.3 nM
- DiscoveRx β-arrestin2 Ymax (%) [2]: 35.6%
- IP-1 Ymax (%) [3]: 3.8%
- EC50 [3]: 178 nM

Structure (SMILES): CCCCc1nc(Cl)c(CO)n1Cc1ccc(-c2cc(-c3ccccc3)ccc2-c2nnn[nH]2)cc1 [Example 35, (1-((6′-(1H-Tetrazol-5-yl)-[1,1′:3′,1″-terphenyl]-4-yl)methyl)-2-butyl-4-chloro-1H-imidazol-5-yl)methanol]
- BRET β-Arrestin2 High AT1R Expression Ymax (%) [1]: 76.7%
- EC50 [1]: 148 nM
- EC50 [2]: 64 nM
- DiscoveRx β-arrestin2 Ymax (%) [2]: 28.2%
- EC50 [3]: > 50000 nM

Structure (SMILES): CCCCOC(=O)NS(=O)(=O)c1sc(-c2ccccc2C)cc1-c1ccc(Cn2c(CC)nc3c(C)cc(C)nc32)cn1 [Example 39, Butyl (3-(5-((2-ethyl-5,7-dimethyl-3H-imidazo[4,5-b]pyridin-3-yl)methyl)pyridin-2-yl)-5-(o-tolyl)thiophen-2-yl)sulfonylcarbamate]
- BRET β-Arrestin2 High AT1R Expression Ymax (%) [1]: 37.9%
- EC50 [1]: 18.8 nM
- EC50 [2]: 33.1 nM
- DiscoveRx β-arrestin2 Ymax (%) [2]: 23.3%
- IP-1 Ymax (%) [3]: 4.8%
- EC50 [3]: 126 nM

Structure (SMILES): CCCCOC(=O)NS(=O)(=O)c1sc(-c2ccccc2C)cc1-c1ccc(Cn2c(CC)nc3c(C)cc(C)nc32)cc1 [Example 40, Butyl (3-(4-((2-ethyl-5,7-dimethyl-3H-imidazo[4,5-b]pyridin-3-yl)methyl)phenyl)-5-(o-tolyl)thiophen-2-yl)sulfonylcarbamate]
- BRET β-Arrestin2 High AT1R Expression Ymax (%) [1]: 84.6%
- EC50 [1]: 14 nM
- EC50 [2]: 9.3 nM
- DiscoveRx β-arrestin2 Ymax (%) [2]: 36.4%
- IP-1 Ymax (%) [3]: 8.5%
- EC50 [3]: 11.9 nM

Structure (SMILES): CCCCOC(=O)NS(=O)(=O)c1sc(-c2ccccc2C(F)(F)F)cc1-c1ccc(Cn2c(CC)nc3c(C)cc(C)nc32)cc1 [Example 45, Butyl (3-(4-((2-ethyl-5,7-dimethyl-3H-imidazo[4,5-b]pyridin-3-yl)methyl)phenyl)-5-(2-(trifluoromethyl)phenyl)thiophen-2-yl)sulfonylcarbamate]
- BRET β-Arrestin2 High AT1R Expression Ymax (%) [1]: 92.2%
- EC50 [1]: 34.7 nM
- EC50 [2]: 24.6 nM
- DiscoveRx β-arrestin2 Ymax (%) [2]: 60.3%
- IP-1 Ymax (%) [3]: 14.5%
- EC50 [3]: 14.4 nM

Structure (SMILES): CCCCOC(=O)NS(=O)(=O)c1sc(-c2ccccc2C(F)(F)F)cc1-c1ccc(Cn2c(CC)nc3c(C)cc(C)nc32)cn1 [Example 46, Butyl (3-(5-((2-ethyl-5,7-dimethyl-3H-imidazo[4,5-b]pyridin-3-yl)methyl)pyridin-2-yl)-5-(2-(trifluoromethyl)phenyl)thiophen-2-yl)sulfonylcarbamate]
- BRET β-Arrestin2 High AT1R Expression Ymax (%) [1]: 84.8%
- EC50 [1]: 13.1 nM
- EC50 [2]: 32 nM
- DiscoveRx β-arrestin2 Ymax (%) [2]: 45.1%
- IP-1 Ymax (%) [3]: 15.4%
- EC50 [3]: 355 nM

Structure (SMILES): CCCCOC(=O)NS(=O)(=O)c1sc(-c2cccnc2OC)cc1-c1ccc(Cn2c(CC)nc3c(C)cc(C)nc32)cc1 [Example 47, Butyl (3-(4-((2-ethyl-5,7-dimethyl-3H-imidazo[4,5-b]pyridin-3-yl)methyl)phenyl)-5-(2-methoxypyridin-3-yl)thiophen-2-yl)sulfonylcarbamate]
- BRET β-Arrestin2 High AT1R Expression Ymax (%) [1]: 56.6%
- EC50 [1]: 14.7 nM
- EC50 [2]: 10.1 nM
- DiscoveRx β-arrestin2 Ymax (%) [2]: 24.5%
- IP-1 Ymax (%) [3]: 3.8%
- EC50 [3]: 6.2 nM

Structure (SMILES): CCCCOC(=O)NS(=O)(=O)c1sc(-c2cccnc2OC)cc1-c1ccc(Cn2c(CC)nc3c(C)cc(C)nc32)cn1 [Example 48, Butyl (3-(5-((2-ethyl-5,7-dimethyl-3H-imidazo[4,5-b]pyridin-3-yl)methyl)pyridin-2-yl)-5-(2-methoxypyridin-3-yl)thiophen-2-yl)sulfonylcarbamate]
- BRET β-Arrestin2 High AT1R Expression Ymax (%) [1]: 43.8%
- EC50 [1]: 40.6 nM
- EC50 [2]: 106 nM
- DiscoveRx β-arrestin2 Ymax (%) [2]: 20.6%
- IP-1 Ymax (%) [3]: 10.0%
- EC50 [3]: 357 nM
